For orientation: koff means the first-order rate constant of dissociation. Lower therefore signals a long-lived complex. In general, kon refers to the rate constant with which the complex forms. A higher kon goes with fast association.

Peptide text beside a SMILES is read from it. * marks the point of attachment. Dansyl = CN(C)c1cccc2c(S(=O)(=O)*)cccc12

Experiment [1] has as its target T1, N-SH3 D138A (Crkl) (Homo sapiens, UniProt P46109, D138A).
T1 construct: The construct encoding the N-SH3 domain of Crkl was subcloned in a pET28b+ plasmid vector; His-tag; made in house; host or cells: E. coli BL21
The experiment is described as follows: Stopped-flow displacement, N-SH3 D138A:dansylated C3G277–296 complex. The following applies: pH 7.5, D138A, 50 mM Hepes pH 7.5, 10 °C. Type of experiment: binding. On the procedure: (§1) We rapidly mixed a constant concentration of C3G277–296 peptide (0.5 µM) versus increasing concentrations of N-SH3 (ranging from 0.5 to 5 µM) and the observed rate constants (kobs) obtained at different ionic strength conditions (buffer Hepes 50 mM, pH 7.0, 0.15 M, 0.3 M, 0.5 M and 1 M NaCl) were plotted as function of concentration of N-SH3 and fitted with a linear equation (Figure 1). By following previously derived equations [19, 20], the dependence of kobs as function of [N-SH3] was fitted with Equation (1), taking into account the non-pseudo-first order conditions, allowing us to calculate the microscopic association rate constant (kon), the microscopic dissociation rate constant (koff) of the binding reaction and the equilibrium dissociation rate constant KD, such as koff/kon. To increase the reliability of the calculated KD, we resorted to directly obtaining a koff value through displacement experiments (Table 1), in which a preincubated complex of N-SH3 domain and dansylated C3G277–296 peptide (at the concentration of 0.5 and 2 µM, respectively) were rapidly mixed versus a high excess of nondansylated peptide (ranging from 20 to 40 µM). In agreement with the theory in [21], the observed rate constants were insensitive to displacer concentration. In all binding and displacement experiments conducted, traces were satisfactorily fitted with a single-exponential equation. (1) kobs=(kon^2∗(2−[NSH3])^2+koff^2+2konkoff(2+[NSH3]))^1/2
(§2) Kinetic binding experiments were performed on a single-mixing SX-18 stopped-flow instrument (Applied Photophysics), by mixing a constant concentration (0.5 μM) of C3G dansylated versus increasing concentrations of N-SH3 at 10 °C. Ionic strength dependence of wt N-SH3 was performed with concentrations ranging from 1 to 5 µM for 0 M NaCl condition and from 0.5 to 5 µM for 0.15 M, 0.3 M, 0.5 M and 1 M NaCl, buffer Hepes 50 mM pH 7.0. The excitation wavelength was 280 nm, and fluorescence was collected using a 455 nm cut-off filter. At least, five independent acquisitions were collected and averaged for each experiment. The resulting averages were all satisfactorily fitted with a single-exponential equation. Buffers used for pH dependence were: 50 mM Sodium Acetate pH 5.0, 50 mM Sodium Acetate, pH 5.5, Bis–Tris 50 mM pH 6.0, Bis–Tris 50 mM pH 6.5, Hepes 50 mM pH 7.0, Hepes 50 mM pH 7.5, Tris–HCl 50 mM pH 8.0, Tris–HCl 50 mM pH 8.5, Tris–HCl 50 mM pH 9.0, all with added 0.5 M NaCl. Concentrations of N-SH3 used for each experiment were: 4.0–8.0 µM at pH 5.0, 2.0–7.0 µM at pH 5.5, 1.0–5.0 µM at pH 6.0, 0.5–5.0 µM at pH 6.5, 1.5–6.0 µM at pH 7.0, 0.5–5.0 µM at pH 7.5, 1.5–6.0 µM at pH 8.0, 1.5–6.0 µM pH 8.5, 1.5–6.0 µM at pH 9.0. […]

Experiment [2] deals with T2, N-SH3 E140A (Crkl) (Homo sapiens, UniProt P46109, E140A).
T2 construct: The construct encoding the N-SH3 domain of Crkl was subcloned in a pET28b+ plasmid vector; His-tag; made in house; host or cells: E. coli BL21
The experiment is described as follows: Stopped-flow displacement, N-SH3 E140A:dansylated C3G277–296 complex. The following applies: pH 7.5, E140A, 50 mM Hepes pH 7.5, 10 °C. Type of experiment: binding. The procedure: as §1, §2

The target in experiment [3] is T1, N-SH3 D138A (Crkl). The experiment is described as follows: Stopped-flow kinetic binding, N-SH3 D138A versus C3G277–296. The following applies: pH 7.5, D138A, 50 mM Hepes pH 7.5, 10 °C. The procedure:
as §1
(§3) Then, we employed D138A, E140A and D141A variants in kinetic binding experiments with C3G, and we explored the effect of increasing ionic strength on the binding reaction of these variants.
as §2, with “NaCl.” for “NaCl. Concentrations of N-SH3 used for each experiment were: 4.0–8.0 µM at pH 5.0, 2.0–7.0 µM at pH 5.5, 1.0–5.0 µM at pH 6.0, 0.5–5.0 µM at pH 6.5, 1.5–6.0 µM at pH 7.0, 0.5–5.0 µM at pH 7.5, 1.5–6.0 µM at pH 8.0, 1.5–6.0 µM pH 8.5, 1.5–6.0 µM at pH 9.0.”

The target in experiment [4] is T2, N-SH3 E140A (Crkl). The experiment is described as follows: Stopped-flow kinetic binding, N-SH3 E140A versus C3G277–296. The following applies: pH 7.5, E140A, 50 mM Hepes pH 7.5, 10 °C. On the procedure:
as §1, §3
as §2, with “NaCl.” for “NaCl. Concentrations of N-SH3 used for each experiment were: 4.0–8.0 µM at pH 5.0, 2.0–7.0 µM at pH 5.5, 1.0–5.0 µM at pH 6.0, 0.5–5.0 µM at pH 6.5, 1.5–6.0 µM at pH 7.0, 0.5–5.0 µM at pH 7.5, 1.5–6.0 µM at pH 8.0, 1.5–6.0 µM pH 8.5, 1.5–6.0 µM at pH 9.0.”

T1 sequence (P46109 123-183 D138A limits assumed): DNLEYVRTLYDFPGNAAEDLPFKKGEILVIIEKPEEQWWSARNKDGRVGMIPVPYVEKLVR
T2 sequence (P46109 123-183 E140A limits assumed): as the sequence (P46109 123-183 D138A limits assumed) above, with A16D, E18A counted along it

Regarding `CC(C)C[C@H](NC(=O)[C@H](C)NC(=O)[C@@H]1CCCN1C(=O)[C@@H]1CCCN1C(=O)[C@@H]1CCCN1C(=O)[C@H](CO)NC(=O)[C@H](CC(N)=O)NC(=O)[C@H](CC(=O)O)NC(=O)[C@@H](NC(=O)[C@@H](NS(=O)(=O)c1cccc2c(N(C)C)cccc12)C(C)C)C(C)C)C(=O)N1CCC[C@H]1C(=O)N1CCC[C@H]1C(=O)N[C@@H](CCCCN)C(=O)N[C@@H](CCCCN)C(=O)N[C@@H](CCCNC(=N)N)C(=O)N[C@@H](CCC(N)=O)C(=O)N[C@@H](CO)C(=O)N[C@@H](C)C(=O)N1CCC[C@H]1C(=O)N[C@@H](CO)C(=O)O` [C3G277–296] (Dansyl-VVDNSPPPALPPKKRQSAPS-OH), the off-rate (koff) turned out to be 139 ± 1 s⁻¹ on N-SH3 D138A (Crkl) [1] (0 M NaCl); 212 ± 2 s⁻¹ on N-SH3 D138A (Crkl) [1] (0.05 M NaCl); 183 ± 2 s⁻¹ on N-SH3 D138A (Crkl) [1] (0.10 M NaCl); 254 ± 2 s⁻¹ on N-SH3 D138A (Crkl) [1] (0.15 M NaCl); 254 ± 3 s⁻¹ at N-SH3 E140A (Crkl) [2] (0 M NaCl); 330 ± 3 s⁻¹ on N-SH3 E140A (Crkl) [2] (0.05 M NaCl). The figures for the koff at N-SH3 E140A (Crkl) [2] (0.10 M NaCl) and on N-SH3 E140A (Crkl) [2] (0.15 M NaCl) were 302 ± 2 s⁻¹ and 339 ± 2 s⁻¹, respectively. Moreover, the kon at N-SH3 D138A (Crkl) [3] (0 M NaCl, 0.5 µM dansylated peptide vs 2.0–4.5 µM N-SH3 D138A) came to 1.58e+08 ± 1.2e+07 M⁻¹ s⁻¹; at N-SH3 D138A (Crkl) [3] (0.05 M NaCl, 0.5 µM dansylated peptide vs 2.5–6.0 µM N-SH3 D138A), 8.1e+07 ± 8e+06 M⁻¹ s⁻¹; on N-SH3 D138A (Crkl) [3] (0.10 M NaCl, 0.5 µM dansylated peptide vs 2.5–6.0 µM N-SH3 D138A), 4.8e+07 ± 8e+06 M⁻¹ s⁻¹; at N-SH3 D138A (Crkl) [3] (0.15 M NaCl, 0.5 µM dansylated peptide vs 2.5–6.0 µM N-SH3 D138A) it was 1.2e+07 ± 5e+06 M⁻¹ s⁻¹; at N-SH3 E140A (Crkl) [4] (0 M NaCl, 0.5 µM dansylated peptide vs 2.0–4.5 µM N-SH3 E140A), 7.8e+07 ± 6e+06 M⁻¹ s⁻¹; at N-SH3 E140A (Crkl) [4] (0.05 M NaCl, 0.5 µM dansylated peptide vs 3.0–5.5 µM N-SH3 E140A) it was 8.9e+07 ± 8e+06 M⁻¹ s⁻¹. Also, the kon was determined as 7.7e+07 ± 8e+06 M⁻¹ s⁻¹ on N-SH3 E140A (Crkl) [4] (0.10 M NaCl, 0.5 µM dansylated peptide vs 3.0–5.0 µM N-SH3 E140A) and 8.1e+07 ± 8e+06 M⁻¹ s⁻¹ at N-SH3 E140A (Crkl) [4] (0.15 M NaCl, 0.5 µM dansylated peptide vs 3.0–5.5 µM N-SH3 E140A).
